In patent US20250144094A1 (Erasca, Inc., priority 2021, published 2025):

Target: Recombinant human ULK1 (1-649) (Homo sapiens (Human), UniProt O75385)
Assay: ULK1 ADP Glo kinase activity assay, new method (ULKtide peptide substrate)
Details: 25° C., 40 minutes, read-out: ULK1 biochemical IC50
Experimental: Recombinant human ULK1 (1-649) protein expressed in Sf9 insect cells was obtained from SignalChem (Vancouver, BC), catalog #U01-11G. Active kinase was purified via N-terminal GST tag to >85% purity.
ADP GLO Kinase Assay Reagents were obtained from Promega Corp (Madison, WI), catalog #V9104.
Synthetic peptide substrate (ULKtide) with the amino acid sequence YANWLAASIYLDGKKK was obtained from ThermoFisher Scientific USA.
ULK1 inhibitor potency was determined using the luminescent ADP Glo Kinase Assay (Promega), a universal ADP detection system that measures kinase activity by quantifying the amount of ADP produced during a kinase reaction. ULK1 kinase reactions are performed in a standard 96-well microplate (20 μL reaction volume) at 25° C. for 40 minutes in the presence or absence of the test compound (12-point dilution series starting at 10 μM). Addition of peptide substrate and ATP initiates the kinase reaction.
The standard ADP Glo assay is performed in two steps. In step one, following the kinase reaction, an equal volume of ADP-Glo™ Reagent (20 μL) is added to terminate the kinase reaction and deplete the remaining ATP. In the second step, the Kinase Detection Reagent (10 μL) is added to simultaneously convert ADP to ATP and allow the newly synthesized ATP to be measured using a luciferase/luciferin reaction. Step two of the ADP Glo assay is performed in a white 384-well plate (20 μL final volume). Thirty minutes after the addition of the Detection reagent, light generated from the luciferase reaction is measured (1 second exposure) using a microplate compatible luminometer (CLARIOstar, BMG Labtech).
Inhibition of ULK1 kinase activity is determined for each test compound by comparison to DMSO only control wells. Inhibitor IC50 was calculated by plotting the change in luminescence after 30 minutes (response) versus inhibitor concentration (in log molar) then applying the four-parameter variable slope curve fit (GraphPad Prism). Inhibition of ULK1 in biochemical assay is found in Table 4.

Recombinant human ULK1 (1-649), sequence (O75385 1-649): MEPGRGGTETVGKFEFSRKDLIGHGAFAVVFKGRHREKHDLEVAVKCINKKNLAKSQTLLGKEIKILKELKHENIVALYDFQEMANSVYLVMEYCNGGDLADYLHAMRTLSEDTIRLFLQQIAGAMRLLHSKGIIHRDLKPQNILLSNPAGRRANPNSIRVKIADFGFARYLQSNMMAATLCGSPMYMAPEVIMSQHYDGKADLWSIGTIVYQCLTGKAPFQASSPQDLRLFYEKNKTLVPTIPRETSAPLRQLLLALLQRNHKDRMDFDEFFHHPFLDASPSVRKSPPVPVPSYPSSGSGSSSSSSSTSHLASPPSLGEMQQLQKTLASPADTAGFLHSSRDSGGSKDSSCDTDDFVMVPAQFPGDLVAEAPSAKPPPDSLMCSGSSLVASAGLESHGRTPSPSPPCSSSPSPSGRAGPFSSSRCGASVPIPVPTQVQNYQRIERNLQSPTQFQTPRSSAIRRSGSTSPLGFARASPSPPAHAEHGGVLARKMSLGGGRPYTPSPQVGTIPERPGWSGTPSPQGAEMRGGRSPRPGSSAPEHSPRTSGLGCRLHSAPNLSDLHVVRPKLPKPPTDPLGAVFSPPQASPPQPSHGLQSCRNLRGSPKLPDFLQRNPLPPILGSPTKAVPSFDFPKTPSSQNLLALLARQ

IC50	SMILES
5 to 10 nM	CCc1cc(C2CCN(CC(F)F)CC2)ccc1Nc1ncc(C(F)(F)F)c(-c2cc3c(s2)C(=O)N(C2COC2)CCS3(=O)=O)n1 [Example 296, 7-(2-((4-(1-(2,2-difluoroethyl)piperidin-4-yl)-2-ethylphenyl)amino)-5-(trifluoromethyl)pyrimidin-4-yl)-4-(oxetan-3-yl)-3,4-dihydrothieno[2,3-f][1,4]thiazepin-5(2H)-one 1,1-dioxide]
≤ 5 nM	CCN1CCc2cc(Nc3ncc(C(F)(F)F)c(-c4cc5c(s4)C(=O)N(C)CCS5(=O)=O)n3)c(C3CC3)cc2C1 [Example 186, 7-(2-((7-cyclopropyl-2-ethyl-1,2,3,4-tetrahydroisoquinolin-6-yl)amino)-5-(trifluoromethyl)pyrimidin-4-yl)-4-methyl-3,4-dihydrothieno[2,3-f][1,4]thiazepin-5(2H)-one 1,1-dioxide]
≤ 5 nM	CCc1cc(N2CCN(C)[C@@H](CO)C2)ccc1Nc1ncc(C(F)(F)F)c(-c2cc3c(s2)C(=O)N(C2COC2)CCS3(=O)=O)n1 [Example 409, (R)-7-(2-((2-Ethyl-4-(3-(hydroxymethyl)-4-methylpiperazin-1-yl)phenyl)amino)-5-(trifluoromethyl)pyrimidin-4-yl)-4-(oxetan-3-yl)-3,4-dihydrothieno[2,3-f][1,4]thiazepin-5(2H)-one 1,1-dioxide]
≤ 5 nM	CCc1cc(N2CCN[C@H](C)C2)ccc1Nc1ncc(C(F)(F)F)c(-c2cc3c(s2)C(=O)N(C2CC2)CCS3(=O)=O)n1 [Example 359, (R)-4-cyclopropyl-7-(2-((2-ethyl-4-(3-methylpiperazin-1-yl)phenyl)amino)-5-(trifluoromethyl)pyrimidin-4-yl)-3,4-dihydrothieno[2,3-f][1,4]thiazepin-5(2H)-one 1,1-dioxide]
≤ 5 nM	CCc1cc(N2C[C@@H]3C[C@H]2CN3C)ccc1Nc1ncc(C(F)(F)F)c(-c2cc3c(s2)C(=O)N(C2CC2)CCS3(=O)=O)n1 [Example 321, 4-cyclopropyl-7-(2-((2-ethyl-4-((1S,4S)-5-methyl-2,5-diazabicyclo[2.2.1]heptan-2-yl)phenyl)amino)-5-(trifluoromethyl)pyrimidin-4-yl)-3,4-dihydrothieno[2,3-f][1,4]thiazepin-5(2H)-one 1,1-dioxide]
5 to 10 nM	CCc1cc(N2C[C@@H]3C[C@H]2CN3C)ccc1Nc1ncc(C(F)(F)F)c(-c2cc3c(s2)C(=O)N(C2COC2)CCS3(=O)=O)n1 [Example 346, 7-(2-((2-Ethyl-4-((1S,4S)-5-methyl-2,5-diazabicyclo[2.2.1]heptan-2-yl)phenyl)amino)-5-(trifluoromethyl)pyrimidin-4-yl)-4-(oxetan-3-yl)-3,4-dihydrothieno[2,3-f][1,4]thiazepin-5(2H)-one 1,1-dioxide]
≤ 5 nM	O=C1c2sc(-c3nc(Nc4cc5c(cc4Cl)CCNC5)ncc3C(F)(F)F)cc2S(=O)(=O)CCN1CC(F)(F)F [Example 214, 7-(2-((6-chloro-1,2,3,4-tetrahydroisoquinolin-7-yl)amino)-5-(trifluoromethyl)pyrimidin-4-yl)-4-(2,2,2-trifluoroethyl)-3,4-dihydrothieno[2,3-f][1,4]thiazepin-5(2H)-one 1,1-dioxide]
≤ 5 nM	CCc1cc2c(cc1Nc1ncc(C(F)(F)F)c(-c3cc4c(s3)C(=O)N(C3CCC3)CCS4(=O)=O)n1)CNCC2 [Example 221, 4-cyclobutyl-7-(2-((6-ethyl-1,2,3,4-tetrahydroisoquinolin-7-yl)amino)-5-(trifluoromethyl)pyrimidin-4-yl)-3,4-dihydrothieno[2,3-f][1,4]thiazepin-5(2H)-one 1,1-dioxide]
5 to 10 nM	CN1CC(n2cc(Nc3ncc(C(F)(F)F)c(-c4cc(S(C)(=O)=O)cs4)n3)c(C3CC3)n2)C1 [Example 145, N-(3-cyclopropyl-1-(1-methylazetidin-3-yl)-1H-pyrazol-4-yl)-4-(4-(methylsulfonyl)thiophen-2-yl)-5-(trifluoromethyl)pyrimidin-2-amine]
≤ 5 nM	C[C@@H]1CN(c2ccc(Nc3ncc(C(F)(F)F)c(-c4cc5c(s4)C(=O)N(C4CC4)CCS5(=O)=O)n3)c(C3CC3)c2)CCN1C [Example 309, (R)-4-cyclopropyl-7-(2-((2-cyclopropyl-4-(3,4-dimethylpiperazin-1-yl)phenyl)amino)-5-(trifluoromethyl)pyrimidin-4-yl)-3,4-dihydrothieno[2,3-f][1,4]thiazepin-5(2H)-one 1,1-dioxide]
≤ 5 nM	CCN1CCc2cc(Nc3ncc(C(F)(F)F)c(-c4cc5c(s4)C(=O)N(C4CC4)CCS5(=O)=O)n3)c(Cl)cc2C1 [Example 213, 7-(2-((7-chloro-2-ethyl-1,2,3,4-tetrahydroisoquinolin-6-yl)amino)-5-(trifluoromethyl)pyrimidin-4-yl)-4-cyclopropyl-3,4-dihydrothieno[2,3-f][1,4]thiazepin-5(2H)-one 1,1-dioxide]
≤ 5 nM	CCc1cc2c(cc1Nc1ncc(C(F)(F)F)c(-c3cc4c(s3)C(=O)N(C)CCS4(=O)=O)n1)CCN(CC1CC1)C2 [Example 223, 7-(2-((2-(cyclopropylmethyl)-7-ethyl-1,2,3,4-tetrahydroisoquinolin-6-yl)amino)-5-(trifluoromethyl)pyrimidin-4-yl)-4-methyl-3,4-dihydrothieno[2,3-f][1,4]thiazepin-5(2H)-one 1,1-dioxide]
≤ 5 nM	O=S1(=O)CCNS(=O)(=O)c2sc(-c3nc(Nc4cc5c(cc4C4CC4)CNCC5)ncc3C(F)(F)F)cc21 [Example 311, 7-(2-((7-cyclopropyl-1,2,3,4-tetrahydroisoquinolin-6-yl)amino)-5-(trifluoromethyl)pyrimidin-4-yl)-3,4-dihydro-2H-thieno[3,2-f][1,5,2]dithiazepine 1,1,5,5-tetraoxide]
≤ 5 nM	CCc1cc2c(cc1Nc1ncc(C(F)(F)F)c(-c3cc4c(s3)C(=O)N(C3CC3)CCS4(=O)=O)n1)CCN(CC1CC1)C2 [Example 242, 4-cyclopropyl-7-(2-((2-(cyclopropylmethyl)-7-ethyl-1,2,3,4-tetrahydroisoquinolin-6-yl)amino)-5-(trifluoromethyl)pyrimidin-4-yl)-3,4-dihydrothieno[2,3-f][1,4]thiazepin-5(2H)-one 1,1-dioxide]
≤ 5 nM	CN1CCS(=O)(=O)c2cc(-c3nc(Nc4cc5c(cc4Cl)CCNC5)ncc3C(F)(F)F)sc2C1=O [Example 159, 7-(2-((6-chloro-1,2,3,4-tetrahydroisoquinolin-7-yl)amino)-5-(trifluoromethyl)pyrimidin-4-yl)-4-methyl-3,4-dihydrothieno[2,3-f][1,4]thiazepin-5(2H)-one 1,1-dioxide]
≤ 5 nM	CN1CCC(n2cc(Nc3ncc(C(F)(F)F)c(-c4cc5c(s4)C(=O)NCCS5(=O)=O)n3)c(C3CC3)n2)CC1 [Example 152, 7-(2-((3-cyclopropyl-1-(1-methylpiperidin-4-yl)-1H-pyrazol-4-yl)amino)-5-(trifluoromethyl)pyrimidin-4-yl)-3,4-dihydrothieno[2,3-f][1,4]thiazepin-5(2H)-one 1,1-dioxide]
≤ 5 nM	CCc1cc(N2CCN[C@@H](CO)C2)ccc1Nc1ncc(C(F)(F)F)c(-c2cc3c(s2)C(=O)N(C2COC2)CCS3(=O)=O)n1 [Example 355, (R)-7-(2-((2-ethyl-4-(3-(hydroxymethyl)piperazin-1-yl)phenyl)amino)-5-(trifluoromethyl)pyrimidin-4-yl)-4-(oxetan-3-yl)-3,4-dihydrothieno[2,3-f][1,4]thiazepin-5(2H)-one 1,1-dioxide]
≤ 5 nM	O=C1c2sc(-c3nc(Nc4cc5c(cc4C4CC4)CCNC5)ncc3C(F)(F)F)cc2S(=O)(=O)CCN1C1CC1 [Example 224, 4-cyclopropyl-7-(2-((6-cyclopropyl-1,2,3,4-tetrahydroisoquinolin-7-yl)amino)-5-(trifluoromethyl)pyrimidin-4-yl)-3,4-dihydrothieno[2,3-f][1,4]thiazepin-5(2H)-one 1,1-dioxide]
≤ 5 nM	CCc1cc2c(cc1Nc1ncc(C(F)(F)F)c(-c3cc4c(s3)C(=O)N(C)CCS4(=O)=O)n1)CCN(CC)C2 [Example 222, 7-(2-((2,7-diethyl-1,2,3,4-tetrahydroisoquinolin-6-yl)amino)-5-(trifluoromethyl)pyrimidin-4-yl)-4-methyl-3,4-dihydrothieno[2,3-f][1,4]thiazepin-5(2H)-one 1,1-dioxide]
≤ 5 nM	O=C1c2sc(-c3nc(Nc4cc5c(nc4C4CC4)CNCC5)ncc3C(F)(F)F)cc2S(=O)(=O)CCN1C1COC1 [Example 304, 7-(2-((2-cyclopropyl-5,6,7,8-tetrahydro-1,7-naphthyridin-3-yl)amino)-5-(trifluoromethyl)pyrimidin-4-yl)-4-(oxetan-3-yl)-3,4-dihydrothieno[2,3-f][1,4]thiazepin-5(2H)-one 1,1-dioxide]
